The supplement of paper PMC10307832

What was measured:
Test in all cases: relative viability (nuclei count vs DMSO), 5 days (fraction); higher = more cells survive
Sorafenib + Phenformin = compound: CNC(=O)c1cc(Oc2ccc(NC(=O)Nc3ccc(Cl)c(C(F)(F)F)c3)cc2)ccn1 [Sorafenib] + N=C(N)NC(=N)NCCc1ccccc1 [Phenformin] (partner 250 µM)
Method in brief: (§1)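 Cells from lung cancer lines were seeded into 1536-well plates and, one day later, dosed by pin tool. Treatments were either a single drug or a fixed dose of an anchor drug with five library-drug doses (not always all listed) in √10 steps. After 5 days, nuclei were stained in a one-step fixation (final 0.05% Triton X-100, 1% formaldehyde, 1 ug/ml Hoechst) and counted on 4× images, and relative viability is the treated-to-vehicle nuclei ratio, as the median of duplicate plates.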

Sorafenib + AZD7762 = compound: CNC(=O)c1cc(Oc2ccc(NC(=O)Nc3ccc(Cl)c(C(F)(F)F)c3)cc2)ccn1 [Sorafenib] + NC(=O)Nc1cc(-c2cccc(F)c2)sc1C(=O)N[C@H]1CCCNC1 [AZD7762] (partner 0.2 µM)
Method in brief: as §1

Sorafenib + Dasatinib = compound: CNC(=O)c1cc(Oc2ccc(NC(=O)Nc3ccc(Cl)c(C(F)(F)F)c3)cc2)ccn1 [Sorafenib] + Cc1nc(Nc2ncc(C(=O)Nc3c(C)cccc3Cl)s2)cc(N2CCN(CCO)CC2)n1 [Dasatinib] (partner 0.075 µM)
Method in brief: as §1

Sorafenib + Linsitinib = compound: CNC(=O)c1cc(Oc2ccc(NC(=O)Nc3ccc(Cl)c(C(F)(F)F)c3)cc2)ccn1 [Sorafenib] + C[C@]1(O)C[C@@H](c2nc(-c3ccc4ccc(-c5ccccc5)nc4c3)c3c(N)nccn32)C1 [Linsitinib] (partner 1 µM)
Method in brief: as §1

Sorafenib = compound: CNC(=O)c1cc(Oc2ccc(NC(=O)Nc3ccc(Cl)c(C(F)(F)F)c3)cc2)ccn1 [Sorafenib]
Method in brief: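 A plate was accepted only when its control CV was below 25% and the cells had doubled at least once. Viability is defined from nuclear counts as treated wells divided by vehicle wells, with the median taken across plates. That median covers lung cancer cell lines grown in 1536-well plates, dosed by pinning at five √10-spaced library-drug concentrations, and counted in MetaXpress from 4× Hoechst images after 5 days.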

Cell Line | relative viability (Sorafenib + Phenformin; first compound 0.08 µM) | relative viability (Sorafenib + Phenformin; first compound 0.253 µM) | relative viability (Sorafenib + Phenformin; first compound 2.53 µM) | relative viability (Sorafenib + Phenformin; first compound 8 µM) | relative viability (Sorafenib + AZD7762; first compound 0.08 µM) | relative viability (Sorafenib + AZD7762; first compound 0.253 µM) | relative viability (Sorafenib + AZD7762; first compound 2.53 µM) | relative viability (Sorafenib + AZD7762; first compound 8 µM) | relative viability (Sorafenib + Dasatinib; first compound 0.08 µM) | relative viability (Sorafenib + Dasatinib; first compound 0.253 µM) | relative viability (Sorafenib + Dasatinib; first compound 2.53 µM) | relative viability (Sorafenib + Dasatinib; first compound 8 µM) | relative viability (Sorafenib + Linsitinib; first compound 0.08 µM) | relative viability (Sorafenib + Linsitinib; first compound 0.253 µM) | relative viability (Sorafenib + Linsitinib; first compound 2.53 µM) | relative viability (Sorafenib + Linsitinib; first compound 8 µM) | relative viability (Sorafenib; 0.08 µM) | relative viability (Sorafenib; 0.253 µM) | relative viability (Sorafenib; 2.53 µM) | relative viability (Sorafenib; 8 µM)
LC-2-ad | 0.595 | 0.495 | 0.613 | 0.453 | 0.942 | 0.86 | 0.967 | 0.769 | 0.721 | 0.376 | 0.427 | 0.33 | 0.935 | 0.798 | 0.673 | 0.659 | 1.03 | 0.834 | 0.939 | 0.762
NCI-H23 | 0.829 | – | 0.726 | 0.74 | 0.193 | 0.323 | 0.229 | 0.159 | 0.804 | 0.691 | 0.646 | 0.709 | 0.626 | 0.439 | 0.553 | 0.512 | 1 | 0.875 | 0.974 | 0.704
NCI-H1792 | 0.199 | 0.309 | 0.234 | 0.181 | 0.674 | 0.483 | 0.442 | 0.425 | 0.825 | 0.742 | 0.863 | 0.554 | 0.569 | 0.511 | 0.478 | 0.546 | 0.877 | 0.843 | 0.892 | 0.773
NCI-H2405 | 0.421 | 0.334 | 0.405 | 0.259 | 0.819 | 0.597 | 0.681 | 0.63 | 0.217 | 0.183 | 0.2 | 0.214 | 1.1 | 0.907 | 0.715 | 0.502 | 1.12 | 0.89 | 1.06 | 0.74
NCI-H1993 | 0.516 | 0.51 | 0.499 | 0.499 | 0.793 | 0.763 | 0.913 | 0.397 | 0.547 | 0.302 | 0.554 | 0.384 | 0.774 | 0.675 | – | 0.819 | 1.09 | 0.968 | 1.19 | 0.812
NCI-H1355 | 0.497 | 0.468 | 0.452 | 0.387 | 0.805 | 0.713 | 0.651 | 0.546 | 0.74 | 0.627 | 0.816 | 0.54 | 0.925 | 0.823 | 0.785 | 0.781 | 1.02 | 0.921 | 0.958 | 0.788
NCI-H2085 | – | 0.623 | 0.756 | 0.48 | 1.04 | 0.874 | 1.03 | 0.604 | 0.311 | 0.271 | 0.26 | 0.237 | 0.962 | 0.924 | 1.07 | 0.728 | 1.06 | 0.972 | 1.04 | 0.895
HCC-78 | 0.812 | 0.598 | – | 0.713 | 0.846 | 0.496 | 0.863 | 0.768 | 0.46 | 0.393 | 0.549 | 0.397 | 0.562 | 0.42 | 0.457 | 0.573 | 1.13 | 0.953 | 1.05 | 1.05
NCI-H3122 | 0.39 | 0.326 | 0.346 | 0.212 | 0.905 | 0.905 | 1.08 | 0.965 | 0.92 | 0.422 | 0.715 | 0.311 | 1.06 | 1.02 | 1.01 | 0.828 | 0.994 | 1.01 | 0.977 | 0.881
EMC-BAC-2 | 0.504 | 0.464 | 0.507 | 0.316 | 1.12 | 0.982 | 1.15 | 1.06 | 0.301 | 0.268 | 0.354 | 0.299 | 0.821 | 0.788 | 0.838 | 0.771 | 1.05 | 0.786 | 0.938 | 0.873
NCI-H2347 | 0.519 | 0.398 | 0.351 | 0.326 | 0.784 | 0.664 | 0.636 | 0.47 | 0.74 | 0.351 | 0.351 | 0.308 | – | 0.921 | 0.973 | 0.999 | 1.11 | 0.964 | 1.01 | 0.944
NCI-H1915 | 0.357 | 0.33 | 0.359 | 0.341 | 0.722 | 0.51 | 0.558 | 0.669 | 0.326 | 0.327 | 0.402 | 0.273 | 1.06 | 0.952 | 0.949 | 1.15 | 0.956 | 0.894 | 0.934 | 0.945
HCC-15 | 0.501 | 0.403 | 0.442 | 0.212 | 1.18 | 1.17 | 1.05 | 0.951 | 0.697 | 0.68 | 0.774 | 0.417 | – | 0.873 | 0.846 | 0.554 | 1.05 | 0.912 | 1.05 | 0.69
201T | – | 0.423 | 0.42 | 0.432 | 0.575 | 0.554 | 0.449 | – | 0.584 | 0.578 | 0.596 | 0.458 | 1 | 0.985 | 1.02 | 1.06 | 0.975 | 0.943 | 1.07 | 0.918
LK-2 | 0.562 | 0.274 | 0.38 | 0.0899 | 0.394 | 0.338 | 0.413 | 0.134 | 0.259 | 0.267 | 0.341 | 0.263 | 0.672 | 0.364 | 0.451 | 0.516 | 1.09 | 0.766 | 0.848 | 0.494
NCI-H647 | 0.636 | 0.495 | 0.454 | 0.198 | 0.415 | 0.298 | 0.64 | 0.35 | 0.245 | 0.172 | 0.174 | 0.135 | 1.16 | 0.992 | 0.976 | 0.243 | 1.05 | 0.763 | 0.853 | 0.492
NCI-H460 | 0.528 | 0.495 | 0.462 | 0.046 | 0.586 | 0.444 | – | 0.414 | 0.554 | 0.541 | 0.498 | 0.416 | 0.838 | 0.771 | 0.684 | 0.215 | 1.01 | 0.918 | 1 | 0.654
LOU-NH91 | 0.784 | 0.678 | 0.73 | 0.489 | 0.804 | 0.721 | 0.876 | 0.671 | 0.692 | 0.52 | 0.686 | 0.361 | 1.07 | 0.973 | 1.13 | 0.873 | 1.1 | 0.967 | 1.17 | –
H3255 | 1.02 | 0.357 | 0.406 | – | 1.02 | 0.799 | 0.937 | 0.716 | 0.497 | 0.344 | 0.345 | 0.201 | – | 0.71 | 0.903 | 0.611 | 1.07 | 0.89 | 0.99 | 0.755
LU99A | 0.978 | 0.864 | 0.748 | 0.408 | 0.369 | 0.307 | 0.321 | 0.155 | 0.512 | 0.504 | 0.608 | 0.351 | 0.533 | 0.488 | 0.507 | 0.496 | 0.997 | 0.94 | 0.777 | 0.696
LCLC-103H | 0.401 | 0.309 | 0.336 | 0.344 | 0.778 | 0.652 | 0.769 | 0.843 | 0.617 | 0.424 | 0.44 | 0.497 | 1.21 | 0.981 | 1.12 | 1.2 | 0.975 | 0.946 | 1.13 | 1.03
